In patent US10590106B2, “Certain chemical entities, compositions, and methods” (NeuPharma, Inc., priority 2012, dated 2020):

How the values were obtained:
KDR (VEGFR2) = KDR (VEGFR2) (Homo sapiens (Human), UniProt P35968); assay: Inhibitory activity against kinase KDR, Z'-LYTE method (Invitrogen); type: biochemical; conditions: for inhibition at 1 µM: 1 μM compound, read-out: Inhibition (% inhibition at 1 μM) against KDR
In short: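 Human KDR (VEGFR2) kinase inhibition was measured with Invitrogen's Z′-LYTE® method. A 2× mixture of KDR and Tyr 01 peptide is made in 50 mM HEPES pH 7.5, 0.01% BRIJ-35, 10 mM MgCl2, 1 mM EGTA. Each 10 μL reaction holds 0.5-11.7 ng enzyme and 2 μM Tyr 01. It incubates for 1 hour, then 5 μL of Development Reagent B diluted 1:256 is added.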

BRAF V600E = BRAF V600E (Homo sapiens (Human), UniProt P15056, V600E); assay: Inhibitory activity against kinase BRAF V600E, Z'-LYTE method (Invitrogen); type: biochemical; conditions: for inhibition at 1 µM: 1 μM compound, read-out: Inhibition (% inhibition at 1 μM) against BRAF V600E
BRAF V600E, sequence (P15056 whole entry V600E): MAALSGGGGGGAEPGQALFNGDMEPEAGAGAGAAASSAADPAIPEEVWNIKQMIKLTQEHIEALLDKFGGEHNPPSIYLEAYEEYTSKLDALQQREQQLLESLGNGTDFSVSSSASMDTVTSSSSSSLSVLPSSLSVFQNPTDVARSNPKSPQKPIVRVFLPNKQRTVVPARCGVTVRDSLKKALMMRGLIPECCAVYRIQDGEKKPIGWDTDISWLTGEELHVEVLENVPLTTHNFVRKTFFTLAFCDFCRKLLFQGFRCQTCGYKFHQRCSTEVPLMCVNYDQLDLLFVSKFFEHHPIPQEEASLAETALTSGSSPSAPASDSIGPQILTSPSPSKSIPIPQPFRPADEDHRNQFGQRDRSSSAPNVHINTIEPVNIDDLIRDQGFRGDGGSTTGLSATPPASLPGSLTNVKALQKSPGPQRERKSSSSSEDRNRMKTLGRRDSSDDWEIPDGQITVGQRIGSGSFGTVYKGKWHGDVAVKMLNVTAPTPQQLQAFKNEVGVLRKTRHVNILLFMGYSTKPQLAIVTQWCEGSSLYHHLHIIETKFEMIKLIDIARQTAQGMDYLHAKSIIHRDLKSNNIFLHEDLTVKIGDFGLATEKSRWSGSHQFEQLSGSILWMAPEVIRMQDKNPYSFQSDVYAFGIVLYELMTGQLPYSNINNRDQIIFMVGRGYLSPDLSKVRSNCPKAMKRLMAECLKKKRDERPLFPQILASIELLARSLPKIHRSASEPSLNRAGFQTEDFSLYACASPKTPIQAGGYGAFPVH
In short: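 FRET-based Z′-LYTE peptide-phosphorylation assay in 50 mM HEPES pH 7.5, 0.01% BRIJ-35, 10 mM MgCl2, 1 mM EGTA; kinase reaction 60 min at room temperature, then 60 min development before fluorescence read. IC50 from concentration vs % inhibition; single-point % inhibition tested at 1 μM.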

A549 cells = assay: Inhibition of cancer cell growth, MTT or MTS assay, A549; type: cell-based; conditions: Homo sapiens, 72 h incubation
In short: (§1)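 Cells in RPMI 1640 with 10% FBS were seeded at ~2000 (A375) or 4000 (A549, Colo205) per well, grown 24 h, then exposed to compound 72 h at 1% final DMSO. Read-out by MTT (570 nm) or MTS (490 nm). IC50 from concentration vs percent inhibition, triplicates.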

BRAF = BRAF (Homo sapiens (Human), UniProt P15056); assay: Inhibitory activity against kinase BRAF, Z'-LYTE method (Invitrogen); type: biochemical; conditions: 1 μM compound
BRAF, sequence (P15056 whole entry): as the sequence (P15056 whole entry V600E) above, with E600V counted along it
In short: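 Z′-LYTE FRET kinase assay in 50 mM HEPES pH 7.5, 10 mM MgCl2, 1 mM EGTA, 0.01% Brij-35, with a 60 min RT kinase reaction, then 60 min development. IC50 was taken from % inhibition versus concentration. Values may be given as % inhibition at 1 μM.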

Colo205 cells = assay: Inhibition of cancer cell growth, MTT or MTS assay, Colo205; type: cell-based; conditions: Homo sapiens, COLO 205; 72 h incubation
Experimental: Inhibition of cell growth by compounds was measured using MTT or MTS assay. Tumor cell lines were purchased from ATCC (American Type Culture Collection, Manassas, Va.). All cell lines were maintained in RPMI 1640 (Hyclone) supplemented with 10% fetal bovine serum (FBS, Hyclone), glutamine (2 mM, Hyclone), and antibiotics (penicillin 100 U/mL and streptomycin 50 μg/mL) at 37° C. in a humidified atmosphere of 5% CO2 in air. Taxol (as a positive control, Sigma) and compounds were dissolved in DMSO (Sigma), and the final concentration of DMSO in the medium was 1%. Tumor cells were plated in 96-well plates at densities of about 2000 (A375) or 4000 (A549 and Colo205) cells/well of a 96-well plate and allowed to adhere/grow for 24 h. They were then treated with various concentrations of drug and incubated for 72 h. For MTT method, medium was then removed by inverting and tapping the plates. 100 μL of MTT (0.5 mg/ml) was added to each well followed by an incubated at 37° C. for 4 h. MTT was then removed and 200 μL of DMSO was added to each well, and the ODs at 570 nm were measured after a 5 second shaking cycle in a 96-well spectrophotometer. For MTS method, 20 μL MTS (CellTiter 96 Aqueous One Solution, Promega) was added to each well followed by an incubated at 37° C. for 2-4 h, solutions were then directly put in a 96-well spectrophotometer, and the ODs at 490 nm were measured.
All concentrations of compounds were tested in triplicate and controls were averaged over 4 wells. IC50 was calculated by plotting the concentration of compound vs the percentage of inhibition in treated wells using GraphPad Prism 5. […] The scale utilized in Tables […] is as follows: +++ less than 1000 nM; ++ between 1000 nM and 5000 nM; and + greater than 5000 nM. The scale utilized in Table 8 is as follows: +++ less than 2000 nM; ++ between 2000 nM and 5000 nM; and + greater than 5000 nM.

Colo205 tumor xenograft = assay: Inhibition of tumor growth in Colo205 tumor xenograft model; type: in vivo, BALB/c female nude mice; conditions: 30 mg/kg, qd × 14, i.p.; for Tumor Volume Post-treatment: after treatment; for Tumor Volume Pre-treatment: before treatment
Experimental: Cells were implanted in BALB/c female nude mice and grown as tumor xenografts. When tumors achieved 120-200 mm^3, mice were assigned into treatment and control groups using randomized block design based upon their tumor volumes. Each group contained 6 tumor-bearing mice. Tumors were measured twice weekly in two dimensions using a caliper, and the tumor volume was calculated from two-dimensional measurements using the equation V=0.5×a×b^2 where a and b are the long and short diameters of the tumor, respectively. Relative tumor volume (RTV) was defined as TVt/TVi, the ratio of the volume on a given day (TVt) and the volume at the start of treatment (TVi). Relative tumor growth rate (T/C) was defined as RTVT/RTVC, the ratio of relative tumor volume of treatment group (RTVT) and relative tumor volume of control group (RTVC) on a given day. Inhibition of tumor growth in a Colo205 tumor xenograft model is shown below in Table 10 for a compound of Table 1.

A375 cells = assay: Inhibition of cancer cell growth, MTT or MTS assay, A375; type: cell-based; conditions: Homo sapiens, A-375; 72 h incubation
In short: as §1

KDR (VEGFR2), sequence (P35968 20-1356): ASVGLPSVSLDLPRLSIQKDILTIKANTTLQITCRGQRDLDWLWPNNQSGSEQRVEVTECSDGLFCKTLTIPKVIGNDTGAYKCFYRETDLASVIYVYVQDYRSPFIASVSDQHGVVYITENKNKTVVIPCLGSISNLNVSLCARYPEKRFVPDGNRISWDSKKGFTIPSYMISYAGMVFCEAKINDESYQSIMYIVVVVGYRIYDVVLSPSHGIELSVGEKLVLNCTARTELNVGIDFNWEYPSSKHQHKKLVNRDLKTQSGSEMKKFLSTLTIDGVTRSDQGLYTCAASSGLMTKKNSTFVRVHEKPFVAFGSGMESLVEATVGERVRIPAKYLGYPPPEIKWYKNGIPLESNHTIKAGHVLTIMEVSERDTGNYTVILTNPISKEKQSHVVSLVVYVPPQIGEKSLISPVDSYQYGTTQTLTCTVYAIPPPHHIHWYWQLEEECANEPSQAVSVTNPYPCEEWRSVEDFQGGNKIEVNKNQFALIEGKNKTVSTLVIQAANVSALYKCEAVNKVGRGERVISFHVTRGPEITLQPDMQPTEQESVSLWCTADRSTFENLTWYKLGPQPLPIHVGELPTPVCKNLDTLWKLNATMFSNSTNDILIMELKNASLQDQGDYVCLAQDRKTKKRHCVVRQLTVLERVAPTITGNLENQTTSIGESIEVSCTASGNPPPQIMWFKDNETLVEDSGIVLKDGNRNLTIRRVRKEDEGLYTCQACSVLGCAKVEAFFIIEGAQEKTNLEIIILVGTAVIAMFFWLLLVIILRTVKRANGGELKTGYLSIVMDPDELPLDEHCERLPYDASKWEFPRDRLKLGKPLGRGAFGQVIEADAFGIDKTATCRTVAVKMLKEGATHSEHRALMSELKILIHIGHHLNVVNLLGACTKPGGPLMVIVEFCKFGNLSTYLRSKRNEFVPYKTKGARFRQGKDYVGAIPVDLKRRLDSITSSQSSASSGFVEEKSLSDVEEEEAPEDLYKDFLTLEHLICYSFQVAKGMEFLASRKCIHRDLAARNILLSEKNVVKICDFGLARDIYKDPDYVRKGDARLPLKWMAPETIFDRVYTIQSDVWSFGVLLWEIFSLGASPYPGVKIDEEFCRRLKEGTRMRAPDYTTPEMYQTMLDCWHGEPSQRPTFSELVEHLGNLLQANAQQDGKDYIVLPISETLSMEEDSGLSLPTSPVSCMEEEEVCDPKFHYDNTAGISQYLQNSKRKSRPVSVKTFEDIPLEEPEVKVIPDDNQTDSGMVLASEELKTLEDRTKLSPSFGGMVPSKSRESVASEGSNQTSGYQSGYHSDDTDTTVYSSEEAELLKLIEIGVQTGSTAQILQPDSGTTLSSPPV

Structure (SMILES): O=C(Nc1ccc(Oc2ccc3ncc(N4CCNCC4)nc3c2)cc1)Nc1ccc(F)c(C(F)(F)F)c1 [Compound C087, 1-(4-fluoro-3-(trifluoromethyl)phenyl)-3-(4-((3-(piperazin-1-yl)quinoxalin-6-yl)oxy)phenyl)urea]
- inhibition at 1 µM (KDR (VEGFR2)): > 89%
- inhibition at 1 µM (BRAF V600E): > 89%
- IC50 (A549 cells): < 2 µM
- inhibition at 1 µM (BRAF): 70 to 89%
- IC50 (Colo205 cells): 1 to 5 µM
- T/C (relative tumor growth rate) (Colo205 tumor xenograft): 81%
- Tumor Volume Post-treatment (Colo205 tumor xenograft): 796.35 mm^3
- Tumor Volume Pre-treatment (Colo205 tumor xenograft): 237.13 mm^3
- IC50 (A375 cells): 1 to 5 µM

Structure (SMILES): O=C(Nc1ccc(Oc2ccc3ncc(N4CCNCC4)nc3c2)cc1)Nc1ccc(Cl)c(C(F)(F)F)c1 [Compound C089, 1-(4-chloro-3-(trifluoromethyl)phenyl)-3-(4-((3-(piperazin-1-yl)quinoxalin-6-yl)oxy)phenyl)urea]
- inhibition at 1 µM (KDR (VEGFR2)): > 89%
- inhibition at 1 µM (BRAF V600E): > 89%
- IC50 (A549 cells): < 2 µM
- inhibition at 1 µM (BRAF): < 70%
- IC50 (Colo205 cells): < 1 µM
- T/C (relative tumor growth rate) (Colo205 tumor xenograft): 79%
- Tumor Volume Post-treatment (Colo205 tumor xenograft): 768.94 mm^3
- Tumor Volume Pre-treatment (Colo205 tumor xenograft): 233.30 mm^3
- IC50 (A375 cells): < 1 µM

Structure (SMILES): O=C(Nc1cccc(Oc2ccc3nccnc3c2)c1)Nc1ccc(Cl)c(C(F)(F)F)c1 [Compound C001, 1-(4-chloro-3-(trifluoromethyl)phenyl)-3-(3-(quinoxalin-6-yloxy)phenyl)urea]
- IC50 (KDR (VEGFR2)): < 0.1 µM
- inhibition at 1 µM (KDR (VEGFR2)): > 89%
- IC50 (BRAF V600E): > 0.1 µM
- inhibition at 1 µM (BRAF V600E): > 89%
- IC50 (A549 cells): < 2 µM
- IC50 (Colo205 cells): 1 to 5 µM
- IC50 (A375 cells): 1 to 5 µM

Structure (SMILES): O=C(Nc1ccc(F)cc1)Nc1ccc(Oc2ccc3ncc(N4CCOCC4)nc3c2)cc1 [Compound C082, 1-(4-fluorophenyl)-3-(4-((3-morpholinoquinoxalin-6-yl)oxy)phenyl)urea]
- inhibition at 1 µM (KDR (VEGFR2)): 70 to 89%
- inhibition at 1 µM (BRAF V600E): > 89%
- inhibition at 1 µM (BRAF): < 70%
- IC50 (Colo205 cells): > 5 µM
